Results taken from patent US5008252A, “Process for inhibiting herpes simplex virus-specified thymidine kinase” (The University of North Carolina at Chapel Hill, priority 1987, dated 1991).
pIC50, pKi: −log10 of the molar value. “And” between values parts separate entries of the source, which are not always exact repeats. Equal values may be shown once. “Also recorded” adds a separate entry of the source.

Key:
HSV-2 (333) dThd kinase = target: T1, HSV-2 (333) dThd kinase (Human herpesvirus 2, UniProt P04407); assay: dThd kinase assay in vitro; format: biochemical, HSV-2 (strain 333)
T1 construct: kinases were extracted from dThd kinase-deficient HeLa BU cells infected with HSV-1 (strain KOS) and HSV-2(strain 333); endogenous in cells; host or cells: HeLa BU cells (dThd kinase deficient) infected with HSV-2 (strain 333)
T1 sequence (P04407 whole entry): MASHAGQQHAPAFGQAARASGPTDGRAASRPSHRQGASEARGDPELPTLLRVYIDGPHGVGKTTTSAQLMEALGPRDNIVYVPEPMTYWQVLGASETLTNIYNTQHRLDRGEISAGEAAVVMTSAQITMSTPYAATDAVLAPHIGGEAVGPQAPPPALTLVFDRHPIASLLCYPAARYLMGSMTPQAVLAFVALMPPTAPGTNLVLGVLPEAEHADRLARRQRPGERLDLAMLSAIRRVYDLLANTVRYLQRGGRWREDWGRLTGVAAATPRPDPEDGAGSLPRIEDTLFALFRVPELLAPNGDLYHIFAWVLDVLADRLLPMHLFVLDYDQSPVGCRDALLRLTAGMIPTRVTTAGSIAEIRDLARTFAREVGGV
Description: (§1) Enzyme purification, enzyme assays, IC50 and Ki determinations. The cellular cytosolic dThd kinase used to determine the Ki values was isolated from KB6B cells. The HSV-1 and HSV-2dThd kinases were extracted from dThd kinase-deficient HeLa BU cells infected with HSV-1 (strain KOS) and HSV-2(strain 333), respectively. All of the dThd kinases were purified using affinity column chromatography procedures described by Lee, L. S. and Cheng, Y.-C. (J. Biol. Chem. 251:2600-2604 (1976)). The dThd kinase assay used was the same as that described by Cheng, Y.-C. & Ostrander, M. (J. Biol. Chem. 251:2605-2610 (1976)). Incubations were conducted at 37° C. for 60 min and the Ki and 50% […] concentration (IC50) values were determined as described by Cheng, Y.-C. and Prusoff, W. H. (Biochem. Pharmacol. 22:3099-3108 (1976)).

[1] = target: T2, human cytosolic dThd kinase (Homo sapiens, UniProt P04183); assay: dThd kinase assay in vitro; format: biochemical; settings: purified enzyme; concentrations as high as 150 μM; 100 μM [14C]dThd
T2 construct: cellular cytosolic dThd kinase used to determine the Ki values was isolated from KB6B cells; endogenous in cells; host or cells: KB6B cells
T2 sequence (P04183 whole entry): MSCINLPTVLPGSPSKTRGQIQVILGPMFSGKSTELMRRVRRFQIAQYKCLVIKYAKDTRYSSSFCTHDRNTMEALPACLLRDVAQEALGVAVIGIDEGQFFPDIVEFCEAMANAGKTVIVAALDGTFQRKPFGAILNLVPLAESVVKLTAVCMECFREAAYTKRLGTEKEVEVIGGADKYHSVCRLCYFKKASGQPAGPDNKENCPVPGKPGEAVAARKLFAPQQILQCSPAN
Description: as §1

[2] = target: HSV-1 B3 dThd kinase (BVDU resistant variant) (Human alphaherpesvirus 1 strain SC16, UniProt P06479); assay: dThd kinase assay in vitro, enzyme extracts; format: biochemical, HSV-1 (strain B3); settings: enzyme extracts of infected HeLa BU cells, 100 μM dThd
HSV-1 B3 dThd kinase (BVDU resistant variant), sequence (P06479 whole entry, looked up, stated change not applied): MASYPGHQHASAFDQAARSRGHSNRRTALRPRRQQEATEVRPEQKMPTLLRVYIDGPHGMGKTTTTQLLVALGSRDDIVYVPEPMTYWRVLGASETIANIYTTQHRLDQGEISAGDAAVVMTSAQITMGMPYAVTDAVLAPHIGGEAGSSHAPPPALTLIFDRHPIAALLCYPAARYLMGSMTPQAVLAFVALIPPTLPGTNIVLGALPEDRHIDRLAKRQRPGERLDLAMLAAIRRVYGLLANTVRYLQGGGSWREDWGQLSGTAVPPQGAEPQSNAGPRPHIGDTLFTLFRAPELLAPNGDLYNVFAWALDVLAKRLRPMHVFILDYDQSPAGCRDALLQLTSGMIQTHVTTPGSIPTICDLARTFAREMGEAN
Protocol: Virus stocks. The viruses used were HSV-1 (strains KOS, SC16, B3 and Tr7) and HSV-2(strain 333). dThd kinase mutants of HSV (SC16), B3 and Tr7, were isolated in the presence of (E)-5-(2-bromovinyl)-2'-deoxyuridine (BVDU) at 10 μg/ml and ACV at 1 μg/ml, respectively (Darby, G., Field, H.J. & Salisbury, S. A. (1982) Nature (London) 289:81-83; Field, H.J & Neden J. (1982) Antiviral Res. 2:243254).
as §1

[3] = target: HSV-1 (KOS) dThd kinase in infected HeLa BU cells (Human alphaherpesvirus 1 strain KOS, UniProt P17402); assay: Intracellular dThd kinase activity ([14C]dThd phosphorylation); format: cell-based, HSV-1 (strain KOS)
HSV-1 (KOS) dThd kinase in infected HeLa BU cells, sequence (P17402 whole entry, looked up): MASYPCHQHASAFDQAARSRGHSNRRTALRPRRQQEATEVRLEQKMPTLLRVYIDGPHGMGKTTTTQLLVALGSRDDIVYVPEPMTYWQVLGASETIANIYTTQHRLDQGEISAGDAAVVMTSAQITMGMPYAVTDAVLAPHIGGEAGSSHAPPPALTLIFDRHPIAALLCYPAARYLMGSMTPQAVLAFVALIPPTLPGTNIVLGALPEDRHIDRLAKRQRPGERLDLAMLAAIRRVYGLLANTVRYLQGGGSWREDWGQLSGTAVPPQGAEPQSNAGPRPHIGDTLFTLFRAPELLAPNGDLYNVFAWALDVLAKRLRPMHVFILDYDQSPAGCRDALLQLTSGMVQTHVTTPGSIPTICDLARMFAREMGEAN
Protocol: (§2) Intracellular dThd kinase activity. HeLa S3 or HeLa BU cells (1.5×10^6 /ml) were mock infected or infected with HSV-1 or HSV-2at 3 PFU/cell and incubated at 37° C. for a 1 h adsorption period. The medium was then removed, and the cells were washed with growth medium and resuspended at a cell density of 5×10^5 cells/ml in RPMI 1640 medium supplemented with kanamycin (100 μg/ml) and 5% dialyzed fetal bovine serum. At 9 h post-HSV infection, [14C]dThd (0.16 μCi/ml; 1 μM dThd) and different amounts of 5'-Et-dThd were added to the medium depending on experimental conditions. At the end of the labeling period (1 h), the cells were pelleted by centrifugation, washed with phosphate-buffered-saline (PBS) and resuspended in a small volume of PBS. Aliquots were then pipetted directly onto DE81 discs which were immediately washed in 100% EtOH. The DE81 discs were washed two additional times in 100% EtOH, and then radioactivity associated with the discs was measured by scintillation counting in 5 ml of aqueous counting fluid. In this manner, total intracellular dThd kinase activity was determined from the sum of radioactive acid soluble dThd nucleotides plus the acid insoluble dTMP associated with DNA, both precipitated directly on the DE81 discs.

[4] = target: HSV-1 SC16 dThd kinase in infected HeLa BU cells (Human herpesvirus 1, UniProt P06479); assay: as above; format: cell-based, HSV-1 (strain SC16); settings: intracellular [14C]dThd phosphorylation
HSV-1 SC16 dThd kinase in infected HeLa BU cells, sequence (P06479 whole entry, looked up): as the sequence (P06479 whole entry, looked up, stated change not applied) above
Protocol: as §2

[5] = system: dNTP pools of HSV-1-infected HeLa BU cells; assay: dNTP pool assay; format: cell-based
Description: (§3) dNTP pool assay. dNTP pool measurements were done as described by Williams, M. W., Chang, C. H. and Cheng, Y.-C. (J. Biomed. Biophys. Meth. 1:153-1 62 (1979)). 5'-Et-dThd alone had no effect on the dNTP pool assay.

[6] = system: dTTP pool of HSV-1-infected HeLa S3 cells; assay: dNTP pool assay; format: cell-based; settings: 100 μM, 12 h post infection
Description: as §3

[7] = system: dTTP pools of HSV-1 (strain MDK)-infected HeLa BU cells; assay: dNTP pool assay; format: cell-based; settings: 100 μM
Description: as §3

[8] = system: mammalian host DNA synthesis; assay: Host DNA synthesis by 32PO4 incorporation; format: cell-based; settings: 100 μM
[9] = target: dThd kinase from HSV-1 (KOS)-infected HeLa BU cells (Human alphaherpesvirus 1 strain KOS, UniProt P17402); assay: Phosphate transfer assay (substrate test); format: biochemical, HSV-1 (strain KOS); settings: 2 mM ATP
dThd kinase from HSV-1 (KOS)-infected HeLa BU cells, sequence (P17402 whole entry, looked up): as the sequence (P17402 whole entry, looked up) above

5'-ethynylthymidine [5'-Et-dThd]
inhibition of dThd kinase activity (HSV-2 (333) dThd kinase; 10 μM 5'-Et-dThd, purified enzyme, 100 μM [14C]dThd): 25% | pKi (HSV-2 (333) dThd kinase; HSV-2 333, affinity column-purified dThd kinase, ± standard deviation): 6.42 | pIC50 (HSV-2 (333) dThd kinase; HSV-2 333, enzyme extracts of infected HeLa BU cells, 100 μM dThd): 4.34 | type of inhibition (kinetic studies) (HSV-2 (333) dThd kinase; with respect to dThd): competitive inhibitor | effect on human cytosolic dThd kinase [1]: does not exhibit inhibitory activity; also recorded: no effect; also recorded: No demonstrable effects | pIC50 [2]: > 5.00 and 5.15 | dThd phosphorylating activity, % of untreated control ([3]; 25 μM, HSV-1-infected HeLa BU, 9 h post infection, 1 h labeling): 12.5% | inhibition of dThd kinase-mediated [14C]dThd phosphorylation ([3]; 100 μM, HSV-1-infected HeLa BU cells, 9 h post infection): 97% | pIC50 ([3]; HSV-1 KOS, intracellular [14C]dThd phosphorylation, HeLa BU cells): 5.52 | pIC50 [4]: 5.30 | effect on dTTP pool of HSV-infected mammalian cells ([5]; 100 μM): significantly decreases | reduction of dTTP pool vs untreated infected control ([5]; 100 μM, HSV-1-infected HeLa BU cells, 12 h post infection): 95% | effect on dATP, dCTP and dGTP pools ([5]; 9 h HSV-1 (KOS)-infected HeLa BU cells): not significantly affected; also recorded: no significant effect | reduction of dTTP pool vs untreated infected control [6]: 80% | inhibition of dTTP pools [7]: 45% | effect on mammalian host DNA synthesis [8]: no effect | substrate for virus dThd kinase (phosphorylation of the analogue) [9]: not phosphorylated; also recorded: did not serve as a substrate
